Experimental data: patent publication US11053207B2, “Indoleamine-2,3-dioxygenase inhibitor and preparation method therefor” (SHANGHAI INSTITUTE OF ORGANIC CHEMISTRY, CHINESE ACADEMY OF …, priority 2014, dated 2021)
Several values for one entry are separate records, joined by “and”; a condition that tells them apart may be missing. Identical values can stand only once. Like-named read-outs stand apart in the source and are kept apart here.

Columns and labels:
IDO enzyme = IDO enzyme (Homo sapiens (Human), UniProt P14902); test: IDO enzyme inhibitory activity; format: biochemical; settings: OD321 nm, 60 min
Method: Firstly, the IDO gene was amplified by PCR, the PCR amplification products were recovered, and then the pET28a plasmid (purchased from Shanghai Baoman Biotechnology Co., Ltd.) and the IDO gel recovery products were digested with EcoR I and Xho I restriction endonucleases (37° C., digestion for 2 h), electrophorized and recovered. The recovered products were ligated overnight by a T4 ligase and then the ligation products were added to DH5α competent cells, placed on ice for 30 min, heat-shocked at 42° C. for 90 s, cultured on a shaker, and seeded to a plate. Monoclonies were picked, identified by PCR and then by sequencing.
The constructed BL21 containing the pET28a-IDO plasmid was cultured at 37° C. to OD600=0.6-0.8, and a final concentration of 7 μM of chlorine methemoglobin and 1 mM of IPTG (isopropyl-β-D-thiogalactoside) were added for induction at 28° C. for 4 h; after the induction, the cell was centrifuged at 6000 rpm at 4° C., the collected cells were washed once with 20 mM PBS (pH6.5), and centrifuged and collected again.
The collected cells were resuspended with a lysis solution (20 mM PBS pH 6.5), ultrasonically lysed (40% of power, lysis for 20 min, placed on ice), the lysed bacteria were centrifuged at 13000 rpm for 15 min, precipitate was discarded and the supernatant was maintained; the nickel column was equilibrated with the lysis solution (20 mM PBS pH 6.5) for 3 column volumes, and then the lysis supernatant was loaded onto the nickel column; after loading, four column volumes of a rinsing solution (20 mM PBS pH 6.5, 20 mM imidazole) were used for washing, and finally protein was eluted with eluent (20 mM PBS pH 6.5, 250 mM imidazole); the eluted protein solution was dialyzed for 4 h, and the dialysis solution was 20 mM PBS, pH 6.5. After the dialysis, the protein sample was concentrated, packed, flash frozen by liquid nitrogen, and stored at −80° C. for further use.
Firstly, the compound was subject to a 3-fold gradient dilution. 1 μL of each concentration was added to a 96-well plate; 50 μL of the IDO enzyme solution (final concentration 600 ng/100μL) was added: 25 μL of substrate 1 mixture solution was added, 25 μL of substrate 2 mixture solution was added to initiate the reaction. Finally, the plate was read at OD321 nm, 60 min.

[1] = Pharmacokinetics of compound 6 in rats (intragastric, intravenous); format: in vivo, SD rats; settings: for Vd: read-out: Vss
Method: 6 SD rats, male, weight 180-200 g, intragastric or intravenous administration of compound 6 (Table 3):
For intragastric administration, the compound was formulated into a suspension with 1% MC, and for intravenous injection the compound was formulated with DMSO: 20% PEG400 (5:95). Fasting for 12 hours before the test, free drinking water. The rats were all fed 2 hours after administration.
Intragastric administration: 0.25, 0.5, 1.0, 2.0, 4.0, 6.0, 8.0 and 24 h after administration;
Intravenous administration: 5 min, 0.25, 0.5, 1.0, 2.0, 4.0, 6.0, 8.0 and 24 h after administration;
At the above set point, the venous blood was taken from the posterior venous plexus of the rat eyes, and placed in a EDTA-2K tube, centrifuged at 11000 rpm for 5 min, the plasma was separated and frozen in a −20° C. refrigerator.
The concentration of compound 6 in rat plasma was determined by LC/MS/MS.
Pharmacokinetic parameters after administration were calculated using the non-compartmental model of the WinNonlin 5.3 software (Pharsight, USA).
Peak concentration Cmax and peak time Tmax are measured value;
Drug area under the curve AUC0−t value: using trapezoidal method; AUC0−∞=AUC0−t+Ct/ke, Ct is the blood concentration at the last measurable time point, ke is the elimination rate constant;
Elimination half-life t1/2=0.693/ke;
Mean residence time MRT=AUMC/AUC.
Clearance rate CL=D/AUC0−∞;
Steady state distribution volume Vss=CL×MRT
Absolute Bioavailability F=(AUCintragastric×Dintravenous)/(AUCintravenous×Dintragastric)×100%

[2] = intragastric 10 mg/kg, individual rat
[3] = intravenous 1 mg/kg, individual rat
[4] = male, SD, rat, plasma, iv, 1 mg/kg, intravenous 1 mg/kg, individual rat
[5] = male, SD, rat, plasma, iv, 1 mg/kg, intravenous 1 mg/kg, mean
[6] = male, SD, rat, plasma, po, 10 mg/kg, intragastric 10 mg/kg, individual rat
[7] = male, SD, rat, plasma, po, 10 mg/kg, intragastric 10 mg/kg, mean

Sequence of IDO enzyme (P14902 whole entry): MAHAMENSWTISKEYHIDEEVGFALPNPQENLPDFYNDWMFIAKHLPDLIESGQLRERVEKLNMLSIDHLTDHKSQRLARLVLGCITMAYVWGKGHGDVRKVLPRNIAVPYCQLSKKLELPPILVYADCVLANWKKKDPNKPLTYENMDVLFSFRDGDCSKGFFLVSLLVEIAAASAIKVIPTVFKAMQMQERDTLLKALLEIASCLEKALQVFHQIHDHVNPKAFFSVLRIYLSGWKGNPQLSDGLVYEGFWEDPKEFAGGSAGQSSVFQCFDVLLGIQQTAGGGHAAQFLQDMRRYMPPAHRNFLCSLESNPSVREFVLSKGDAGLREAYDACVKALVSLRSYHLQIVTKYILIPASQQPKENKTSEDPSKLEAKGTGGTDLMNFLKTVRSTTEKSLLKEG

SMILES: CS(=O)(CCNc1nonc1/C(=N/O)Nc1ccc(F)c(Br)c1)=NC#N (racemic) [compound 6, (±)(Z)—N-(3-bromo-4-fluorophenyl)-N′-hydroxy-4-((2-(thio-methylsulfoxidecyanoimine)ethyl)amino)-1,2,5-oxadiazole-3-carboxamidine]
- IC50 (IDO enzyme): 11 nM
- AUC0-t [1, 2]: 2817 ng·h/mL and 2795 ng·h/mL
- AUC0-∞ [1, 2]: 3007 ng·h/mL and 3008 ng·h/mL
- Cmax [1, 2]: 854 ng/mL and 659 ng/mL
- MRT [1, 2]: 3.27 h and 3.47 h
- Tmax [1, 2]: 1.00 h
- t1/2 [1, 2]: 1.80 h
- AUC0-t ([1]; intragastric 10 mg/kg, mean): 2651 ng·h/mL
- AUC0-t [1, 3]: 505 ng·h/mL and 547 ng·h/mL
- AUC0-∞ [1, 3]: 534 ng·h/mL and 555 ng·h/mL
- CL [1, 3]: 31.2 mL/min/kg and 30 mL/min/kg
- MRT [1, 3]: 2.03 h and 1.67 h
- Vss [1, 3]: 3.79 L/kg and 3.02 L/kg
- t1/2 [1, 3]: 2.51 h and 1.32 h
- AUC0-t ([1]; intravenous 1 mg/kg, mean): 533 ng·h/mL
- CL ([1]; intravenous 1 mg/kg, mean): 30.3 mL/min/kg
- AUC(0-inf) [1, 4]: 563 ng·h/mL
- clearance [1, 4]: 29.7 mL/min/kg
- half-life [1, 4]: 1.71 h
- AUC0-t ([1]; male, SD, rat, plasma, iv, 1 mg/kg, intravenous 1 mg/kg, individual rat, read-out: AUC0-t): 546 ng·h/mL
- MRT ([1]; male, SD, rat, plasma, iv, 1 mg/kg, intravenous 1 mg/kg, individual rat, read-out: MRT): 1.91 h
- Vd [1, 4]: 3.39 L/kg
- AUC(0-inf) [1, 5]: 551 ng·h/mL
- clearance [1, 5]: 30.3 mL/min/kg
- half-life [1, 5]: 1.85 h
- AUC0-t ([1]; male, SD, rat, plasma, iv, 1 mg/kg, intravenous 1 mg/kg, mean, read-out: AUC0-t): 533 ng·h/mL
- MRT ([1]; male, SD, rat, plasma, iv, 1 mg/kg, intravenous 1 mg/kg, mean, read-out: MRT): 1.87 h
- Vd [1, 5]: 3.4 L/kg
- bioavailability ([1]; male, SD, rat, plasma, oral, intragastric 10 mg/kg vs intravenous 1 mg/kg, dose normalized, read-out: F (absolute bioavailability)): 49.8%
- AUC(0-inf) [1, 6]: 2480 ng·h/mL
- half-life [1, 6]: 1.58 h
- AUC0-t ([1]; male, SD, rat, plasma, po, 10 mg/kg, intragastric 10 mg/kg, individual rat, read-out: AUC0-t): 2340 ng·h/mL
- Cmax ([1]; male, SD, rat, plasma, po, 10 mg/kg, intragastric 10 mg/kg, individual rat, read-out: Cmax): 593 ng/mL
- MRT ([1]; male, SD, rat, plasma, po, 10 mg/kg, intragastric 10 mg/kg, individual rat, read-out: MRT): 3.35 h
- Tmax ([1]; male, SD, rat, plasma, po, 10 mg/kg, intragastric 10 mg/kg, individual rat, read-out: Tmax): 2 h
- AUC(0-inf) [1, 7]: 2830 ng·h/mL
- half-life [1, 7]: 1.73 h
- AUC0-t ([1]; male, SD, rat, plasma, po, 10 mg/kg, intragastric 10 mg/kg, mean, read-out: AUC0-t): 2650 ng·h/mL
- Cmax ([1]; male, SD, rat, plasma, po, 10 mg/kg, intragastric 10 mg/kg, mean, read-out: Cmax): 702 ng/mL
- MRT ([1]; male, SD, rat, plasma, po, 10 mg/kg, intragastric 10 mg/kg, mean, read-out: MRT): 3.36 h
- Tmax ([1]; male, SD, rat, plasma, po, 10 mg/kg, intragastric 10 mg/kg, mean, read-out: Tmax): 1.33 h
